This is an account of results in paper PMC4300089, “Structure-Guided Design of Selective Epac1 and Epac2 Agonists” (PLoS Biology, 2015).

The first test has as its target T1, Epac2^Δ280 (Mus musculus, UniProt Q9EQZ6).
T1 construct: made in house
T1 sequence (Q9EQZ6 281-993 isoform Q9EQZ6-3): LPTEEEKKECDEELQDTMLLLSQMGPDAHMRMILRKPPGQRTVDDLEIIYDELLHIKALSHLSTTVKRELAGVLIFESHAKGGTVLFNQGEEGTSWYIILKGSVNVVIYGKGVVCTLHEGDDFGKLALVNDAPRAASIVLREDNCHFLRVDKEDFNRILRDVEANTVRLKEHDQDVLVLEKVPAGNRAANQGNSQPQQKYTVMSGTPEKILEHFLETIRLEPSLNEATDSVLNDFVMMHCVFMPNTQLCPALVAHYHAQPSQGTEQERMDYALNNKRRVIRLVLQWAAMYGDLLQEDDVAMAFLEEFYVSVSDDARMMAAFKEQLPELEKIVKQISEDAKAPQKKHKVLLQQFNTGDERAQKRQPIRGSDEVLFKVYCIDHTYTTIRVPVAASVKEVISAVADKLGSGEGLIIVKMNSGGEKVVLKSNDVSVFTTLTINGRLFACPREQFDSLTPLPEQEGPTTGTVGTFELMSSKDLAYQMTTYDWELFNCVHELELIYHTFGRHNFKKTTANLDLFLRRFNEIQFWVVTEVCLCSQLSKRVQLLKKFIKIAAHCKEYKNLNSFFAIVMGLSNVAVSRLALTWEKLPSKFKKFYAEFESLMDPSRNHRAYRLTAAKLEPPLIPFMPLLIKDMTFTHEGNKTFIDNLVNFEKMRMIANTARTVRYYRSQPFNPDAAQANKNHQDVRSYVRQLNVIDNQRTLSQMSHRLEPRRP
Put plainly: Epac activation assay (Rap1B•mGDP fluorescence nucleotide exchange), Epac2^Δ280. The following applies: Epac2^Δ280. Format: biochemical. How it is done:
Murine Epac2 was used as all previous structural studies were performed with it.
The activity of Epac was determined by a fluorescence assay. […] The fluorescence intensity of Rap1B•mGDP is approximately twice that of free mGDP, and thus, nucleotide exchange can be observed as a decay in fluorescence upon the addition of excess unlabeled GDP.
One may read the AC50 as the concentration giving half of the maximal activity seen. A low value points to activity at low concentration. In turn, `C[Se]c1nc2c(N)ncnc2n1[C@@H]1O[C@@H]2COP(=O)(O)O[C@H]2[C@H]1O` [L-027, 8-MeSe-cAMP] had a concentration at half-maximal activity (AC50) of 0.18 µM.

In turn, `Nc1ncnc2c1nc(Br)n2[C@@H]1O[C@@H]2COP(=O)(O)O[C@H]2[C@H]1F` [D-004, 8-Br-2′-F-cAMP] displayed an AC50 of 14 µM.

For the compound `COc1ccc(CSc2nc3c(N)ncnc3n2[C@@H]2O[C@@H]3CO[P@](O)(=S)O[C@H]3[C@H]2O)cc1` [S-250, Sp-8-pMeOBnT-cAMPS], the AC50 came to 0.11 µM.

Compound `O=P1(O)OCC2OC(n3cnc4c(NCc5ccccc5)ncnc43)C(O)C2O1` (stereo not drawn) [N-001, N^6-Bn-cAMP] registered an AC50 of 1.1 µM.

Take `CCCO[C@@H]1[C@@H]2OP(=O)(O)OC[C@H]2O[C@H]1n1cnc2c(N)ncnc21` [Z-005, 2′-O-Pr-cAMP]: the activity was half-maximal at 70 µM (AC50).

The compound `Nc1ncnc2c1nc(Sc1ccc(O)cc1)n2[C@@H]1O[C@@H]2CO[P@](O)(=S)O[C@H]2[C@H]1O` [S-200, Sp-8-pOHPT-cAMPS] gave an AC50 of 0.07 µM.

Consider `Nc1ncnc2c1nc(Br)n2[C@@H]1O[C@@H]2CO[P@](O)(=S)O[C@H]2[C@H]1F` [S-012, Sp-8-Br-2′-F-cAMPS], for which half-maximal activity (AC50) was put at 9.8 µM.

`CN(C)c1nc2c(N)ncnc2n1[C@@H]1O[C@@H]2COP(=O)(O)O[C@H]2[C@H]1O` [L-015, 8-DMeA-cAMP] returned an AC50 of 1.4 µM.

Sp-8-PIA-cAMPS [S-120]: the AC50 is 14 µM. This AC50 is about 10-fold higher than that of the compound before.

`Nc1ncnc2c1nc(N1CCOCC1)n2[C@@H]1O[C@@H]2COP(=O)(O)O[C@H]2[C@H]1O` [L-020, 8-Morph-cAMP] had an AC50 of 18 µM.

The compound `Nc1ncnc2c1nc(Cl)n2[C@@H]1O[C@@H]2COP(=O)(O)O[C@H]2[C@H]1Cl` [D-006, 8,2′-DCl-cAMP] came in with an AC50 of 14 µM.

In the case of `NCCNc1nc2c(N)ncnc2n1[C@@H]1O[C@@H]2COP(=O)(O)O[C@H]2[C@H]1O` [L-006, 8-AEA-cAMP], the AC50 was 1.6 µM.

`Nc1ncnc2c1nc(N1CCCCC1)n2[C@@H]1O[C@@H]2CO[P@](O)(=S)O[C@H]2[C@H]1O` [S-110, Sp-8-PIP-cAMPS] displayed an AC50 of 9.5 µM.

Sp-8-ADOA-cAMPS [S-060] returned an AC50 of 6.2 µM.

Take `Nc1ncnc2c1nc(N)n2[C@@H]1O[C@@H]2COP(=O)(O)O[C@H]2[C@H]1O` [L-003, 8-NH2-cAMP]: the half-maximal activity concentration (AC50) was 0.2 µM.

In turn, `CC(C)(C)c1ccc(CSc2nc3c(N)ncnc3n2[C@@H]2O[C@@H]3CO[P@](O)(=S)O[C@H]3[C@H]2O)cc1` [S-240, Sp-8-ptBuBnT-cAMPS] yielded an AC50 of 0.1 µM.

Staying with this test, now noted: Epac2^Δ280; maximal activity relative to cAMP.
`C[Se]c1nc2c(N)ncnc2n1[C@@H]1O[C@@H]2COP(=O)(O)O[C@H]2[C@H]1O` [L-027, 8-MeSe-cAMP] yielded a Rel. kmax of 1.5.

As for `Nc1ncnc2c1nc(Br)n2[C@@H]1O[C@@H]2COP(=O)(O)O[C@H]2[C@H]1F` [D-004, 8-Br-2′-F-cAMP], the Rel. kmax was 1.5.

`COc1ccc(CSc2nc3c(N)ncnc3n2[C@@H]2O[C@@H]3CO[P@](O)(=S)O[C@H]3[C@H]2O)cc1` [S-250, Sp-8-pMeOBnT-cAMPS] had a Rel. kmax of 5.4.

In turn, `O=P1(O)OCC2OC(n3cnc4c(NCc5ccccc5)ncnc43)C(O)C2O1` (stereo not drawn) [N-001, N^6-Bn-cAMP] yielded a Rel. kmax of 0.3.

As to `CCCO[C@@H]1[C@@H]2OP(=O)(O)OC[C@H]2O[C@H]1n1cnc2c(N)ncnc21` [Z-005, 2′-O-Pr-cAMP], the Rel. kmax amounted to 0.5.

Compound `Nc1ncnc2c1nc(Sc1ccc(O)cc1)n2[C@@H]1O[C@@H]2CO[P@](O)(=S)O[C@H]2[C@H]1O` [S-200, Sp-8-pOHPT-cAMPS] gave a Rel. kmax of 1.2.

`Nc1ncnc2c1nc(Br)n2[C@@H]1O[C@@H]2CO[P@](O)(=S)O[C@H]2[C@H]1F` [S-012, Sp-8-Br-2′-F-cAMPS]: the Rel. kmax is 1.2.

On to `CN(C)c1nc2c(N)ncnc2n1[C@@H]1O[C@@H]2COP(=O)(O)O[C@H]2[C@H]1O` [L-015, 8-DMeA-cAMP], for which the Rel. kmax amounted to 3.6.

Sp-8-PIA-cAMPS [S-120] gave a Rel. kmax of 2.3.

For `Nc1ncnc2c1nc(N1CCOCC1)n2[C@@H]1O[C@@H]2COP(=O)(O)O[C@H]2[C@H]1O` [L-020, 8-Morph-cAMP], the Rel. kmax is listed as 3.8.

For `Nc1ncnc2c1nc(Cl)n2[C@@H]1O[C@@H]2COP(=O)(O)O[C@H]2[C@H]1Cl` [D-006, 8,2′-DCl-cAMP], the Rel. kmax is given as 0.7.

`NCCNc1nc2c(N)ncnc2n1[C@@H]1O[C@@H]2COP(=O)(O)O[C@H]2[C@H]1O` [L-006, 8-AEA-cAMP] yielded a Rel. kmax of 0.5.

On to `Nc1ncnc2c1nc(N1CCCCC1)n2[C@@H]1O[C@@H]2CO[P@](O)(=S)O[C@H]2[C@H]1O` [S-110, Sp-8-PIP-cAMPS], for which the Rel. kmax was 3.7.

Regarding Sp-8-ADOA-cAMPS [S-060], the Rel. kmax is listed as 2.1.

On to `Nc1ncnc2c1nc(N)n2[C@@H]1O[C@@H]2COP(=O)(O)O[C@H]2[C@H]1O` [L-003, 8-NH2-cAMP], for which the Rel. kmax was found to be 0.7.

In the case of `CC(C)(C)c1ccc(CSc2nc3c(N)ncnc3n2[C@@H]2O[C@@H]3CO[P@](O)(=S)O[C@H]3[C@H]2O)cc1` [S-240, Sp-8-ptBuBnT-cAMPS], the Rel. kmax is listed as 5.0.

The target in the next test is T2, Epac1 (Homo sapiens, UniProt O95398).
T2 construct: made in house
T2 sequence (O95398 150-881 isoform O95398-3): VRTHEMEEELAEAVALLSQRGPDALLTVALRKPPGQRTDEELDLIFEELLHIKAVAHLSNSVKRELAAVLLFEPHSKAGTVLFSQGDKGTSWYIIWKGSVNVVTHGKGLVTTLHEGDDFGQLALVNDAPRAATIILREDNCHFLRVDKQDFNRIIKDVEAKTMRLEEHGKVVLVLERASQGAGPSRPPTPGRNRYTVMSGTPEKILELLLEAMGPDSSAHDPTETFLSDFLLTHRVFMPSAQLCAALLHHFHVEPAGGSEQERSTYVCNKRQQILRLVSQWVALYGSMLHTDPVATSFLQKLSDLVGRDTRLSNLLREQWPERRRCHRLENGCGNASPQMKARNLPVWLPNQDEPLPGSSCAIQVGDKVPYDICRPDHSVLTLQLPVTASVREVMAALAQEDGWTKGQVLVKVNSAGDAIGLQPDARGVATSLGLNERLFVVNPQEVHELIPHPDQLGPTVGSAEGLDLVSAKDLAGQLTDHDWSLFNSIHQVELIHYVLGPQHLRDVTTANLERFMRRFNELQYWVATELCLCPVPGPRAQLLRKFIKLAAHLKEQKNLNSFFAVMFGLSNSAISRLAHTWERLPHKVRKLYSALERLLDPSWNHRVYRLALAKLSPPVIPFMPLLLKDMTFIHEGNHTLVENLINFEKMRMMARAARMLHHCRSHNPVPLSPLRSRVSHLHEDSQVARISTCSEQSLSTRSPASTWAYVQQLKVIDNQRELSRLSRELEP
Put plainly: Epac activation assay, Epac1. The following applies: Epac1. It is filed as biochemical.
As to `Nc1ncnc2c1nc(Br)n2[C@@H]1O[C@@H]2COP(=O)(O)O[C@H]2[C@H]1F` [D-004, 8-Br-2′-F-cAMP], the AC50 turned out to be 100 µM.

In the case of `Nc1ncnc2c1nc(Br)n2[C@@H]1O[C@@H]2CO[P@](O)(=S)O[C@H]2[C@H]1F` [S-012, Sp-8-Br-2′-F-cAMPS], the AC50 amounted to 75 µM. This AC50 and that of the compound before are within 1.5-fold of each other.

Still in this test, the particulars now being: Epac1; maximal activity relative to cAMP.
For the compound `Nc1ncnc2c1nc(Br)n2[C@@H]1O[C@@H]2COP(=O)(O)O[C@H]2[C@H]1F` [D-004, 8-Br-2′-F-cAMP], the Rel. kmax came out at 0.4.

In the case of `Nc1ncnc2c1nc(Br)n2[C@@H]1O[C@@H]2CO[P@](O)(=S)O[C@H]2[C@H]1F` [S-012, Sp-8-Br-2′-F-cAMPS], the Rel. kmax is 0.08.
